{"source": "paper PMC10897476", "about": "“Pyridylpiperazine efflux pump inhibitor boosts in vivo antibiotic efficacy against K. pneumoniae” (EMBO Molecular Medicine, 2023)", "format_in_all_cases": "cell-based, Klebsiella pneumoniae", "key": {"K. pneumoniae AcrB^V448E [1]": {"tested_on": "K. pneumoniae AcrB^V448E", "test": "Checkerboard assay levofloxacin x EPI, AcrB V448E mutant", "conditions": "for percentage resazurin turnover: listed as Lev", "procedure": "(§1) MIC experiments were carried out according to the CLSI guidelines (CLSI [2023]). Overnight cultures were diluted to an OD600 = 0.001 in CAMHB followed by addition of efflux pump inhibitors (EPIs) at a final concentration of 100 µM. […] Plates were incubated at 37 °C for up to 20 h. Bacterial viability was evaluated using the resazurin microtitre assay (REMA) and measured by fluorescence using a Tecan Spaert multimode plate reader (Ex: 530 nm Em: 590 nm). MICs were defined as the concentration that prevented 90% of resazurin turnover compared to the non-treated bacteria.\n(§2) Bacterial suspensions, incubation and plate readouts were carried out as described above."}, "[2]": {"tested_on": "K. pneumoniae RamR^mut (K124*stop)", "test": "MIC of antibiotics with and without EPI (REMA), RamR mutant", "conditions": "for Minimum Inhibitory Concentration: K. pneumoniae RamR^mut", "procedure,_shortened": "(§3)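 K. pneumoniae ATCC 43816 carrying single chromosomal acrB or ramR mutations introduced by allelic exchange, diluted to OD600 = 0.001 in CAMHB with EPI at final 100 µM. Incubated 37 °C up to 20 h; viability by resazurin fluorescence (Ex 530/Em 590 nm).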"}, "[3]": {"tested_on": "K. pneumoniae ATCC 43816 (WT)", "test": "Checkerboard assay levofloxacin x EPI, WT strain", "conditions": "for checkerboard growth readout: ATCC43816 WT, EPI 0 µM; for MIC: Klebsiella pneumoniae; for Median REMA values (percentage resazurin turnover): median n=3; for Median REMA values (percentage resazurin turnover) / percentage resazurin turnover: listed as Lev; for percentage resazurin turnover: individual replicates", "procedure": "as §1, §2"}, "[4]": {"tested_on": "K. pneumoniae RamR^mut (K124*stop)", "test": "Checkerboard assay levofloxacin x EPI, RamR mutant", "conditions": "for checkerboard growth readout: ATCC43816 ramRmut, EPI 0 µM; for MIC: Klebsiella pneumoniae", "procedure": "as §1, §2"}, "K. pneumoniae AcrB^V448E [5]": {"tested_on": "K. pneumoniae AcrB^V448E", "test": "MIC of antibiotics with and without EPI (REMA), AcrB V448E mutant", "conditions": "for Minimum Inhibitory Concentration: K. pneumoniae AcrB^V448E", "procedure,_shortened": "as §3"}, "[6]": {"conditions": "Lev 500.00 ng/mL, BDM91288 0.00 uM"}, "[7]": {"conditions": "Lev 1000 ng/mL, BDM91288 0.00 uM"}, "[8]": {"conditions": "Klebsiella pneumoniae, read-out: Minimum Inhibitory Concentration"}}, "note": "“And” between values parts separate entries of the source, which are not always exact repeats. Equal values may be shown once. Read-outs that look alike come from different tables or passages of the source. Marks after values point to notes of the source that are not given here.", "data": [{"smiles": "C[C@H]1COc2c(N3CCN(C)CC3)c(F)cc3c(=O)c(C(=O)O)cn1c23", "note": "[Levofloxacin]", "values": [{"measurement": "Median REMA values", "setting": "K. pneumoniae AcrB^V448E [1]; [6]", "result": -0.289, "unit": "%"}, {"measurement": "percentage resazurin turnover", "setting": "K. pneumoniae AcrB^V448E [1]; [6]", "result": "-0.289% and -0.371% and 0.114%"}, {"measurement": "Median REMA values", "setting": "K. pneumoniae AcrB^V448E [1]; Lev 500.00 ng/mL, PABN 0.00 uM", "result": -0.75, "unit": "%"}, {"measurement": "percentage resazurin turnover", "setting": "K. pneumoniae AcrB^V448E [1]; Lev 500.00 ng/mL, PABN 0.00 uM", "result": "-0.676% and -1% and -0.75%"}, {"measurement": "Median REMA values", "setting": "K. pneumoniae AcrB^V448E [1]; [7]", "result": 0.0503, "unit": "%"}, {"measurement": "percentage resazurin turnover", "setting": "K. pneumoniae AcrB^V448E [1]; [7]", "result": "0.0503% and -0.121% and 0.102%"}, {"measurement": "Median REMA values", "setting": "K. pneumoniae AcrB^V448E [1]; Lev 1000 ng/mL, PABN 0.00 uM", "result": -0.383, "unit": "%"}, {"measurement": "percentage resazurin turnover", "setting": "K. pneumoniae AcrB^V448E [1]; Lev 1000 ng/mL, PABN 0.00 uM", "result": "-0.346% and -0.646% and -0.383%"}, {"measurement": "Minimum Inhibitory Concentration", "setting": "[2]; + 100 µM 1'", "result": "0.08^# mg/L"}, {"measurement": "Minimum Inhibitory Concentration", "setting": "[2]; + 100 µM 5", "result": "0.05^# mg/L"}, {"measurement": "Minimum Inhibitory Concentration", "setting": "[2]; + 100 µM PAβN", "result": "0.04^# mg/L"}, {"measurement": "MIC", "setting": "[2]; [8]", "result": 0.64, "unit": "µg/mL"}, {"measurement": "checkerboard growth readout", "setting": "[3]; levofloxacin 4 ng/mL", "result": "114 and 99"}, {"measurement": "checkerboard growth readout", "setting": "[3]; levofloxacin 8 ng/mL", "result": "102 and 104"}, {"measurement": "checkerboard growth readout", "setting": "[3]; levofloxacin 15.625 ng/mL", "result": "112 and 95"}, {"measurement": "checkerboard growth readout", "setting": "[3]; levofloxacin 31.25 ng/mL", "result": "88 and 69"}, {"measurement": "MIC", "setting": "[3]; ATCC43816, read-out: levofloxacin MIC (checkerboard)", "result": 0.0625, "unit": "µg/mL"}, {"measurement": "MIC", "setting": "[3]; ATCC43816, read-out: levofloxacin boosted MIC (checkerboard)", "result": 0.016, "unit": "µg/mL"}, {"measurement": "Median REMA values (percentage resazurin turnover)", "setting": "[3]; Lev 0.24 ng/mL + EPI 0.00 uM", "result": "82% and 111%"}, {"measurement": "Median REMA values (percentage resazurin turnover)", "setting": "[3]; Lev 0.49 ng/mL + EPI 0.00 uM", "result": "103% and 87%"}, {"measurement": "Median REMA values (percentage resazurin turnover)", "setting": "[3]; Lev 0.98 ng/mL + EPI 0.00 uM", "result": "102% and 101%"}, {"measurement": "percentage resazurin turnover", "setting": "[3]; Lev 1.95 ng/mL + EPI 0.00 uM", "result": "92% and 97%"}, {"measurement": "Median REMA values (percentage resazurin turnover)", "setting": "[3]; Lev 1.95 ng/mL + EPI 0.00 uM", "result": "101% and 92%"}, {"measurement": "percentage resazurin turnover", "setting": "[3]; Lev 3.91 ng/mL + EPI 0.00 uM", "result": "128% and 114% and 108%"}, {"measurement": "Median REMA values (percentage resazurin turnover)", "setting": "[3]; Lev 3.91 ng/mL + EPI 0.00 uM", "result": "99% and 114%"}, {"measurement": "percentage resazurin turnover", "setting": "[3]; Lev 7.81 ng/mL + EPI 0.00 uM", "result": "102% and 106% and 72%"}, {"measurement": "Median REMA values (percentage resazurin turnover)", "setting": "[3]; Lev 7.81 ng/mL + EPI 0.00 uM", "result": "104% and 102%"}, {"measurement": "percentage resazurin turnover", "setting": "[3]; Lev 15.63 ng/mL + EPI 0.00 uM", "result": "100% and 112% and 143%"}, {"measurement": "Median REMA values (percentage resazurin turnover)", "setting": "[3]; Lev 15.63 ng/mL + EPI 0.00 uM", "result": "95% and 112%"}, {"measurement": "percentage resazurin turnover", "setting": "[3]; Lev 31.25 ng/mL + EPI 0.00 uM", "result": "88% and 76% and 139%"}, {"measurement": "Median REMA values (percentage resazurin turnover)", "setting": "[3]; Lev 31.25 ng/mL + EPI 0.00 uM", "result": "69% and 88%"}, {"measurement": "percentage resazurin turnover", "setting": "[3]; Lev 62.50 ng/mL + EPI 0.00 uM", "result": "-0.208% and 0.0384% and 0.176%"}, {"measurement": "Median REMA values (percentage resazurin turnover)", "setting": "[3]; Lev 62.50 ng/mL + EPI 0.00 uM", "result": "-0.588% and 0.0384%"}, {"measurement": "percentage resazurin turnover", "setting": "[3]; Lev 500.00 ng/mL + EPI 0.00 uM", "result": "-0.171% and 0.0154% and 0.238%"}, {"measurement": "Median REMA values (percentage resazurin turnover)", "setting": "[3]; Lev 500.00 ng/mL + EPI 0.00 uM", "result": "-0.604% and 0.0154%"}, {"measurement": "percentage resazurin turnover", "setting": "[3]; Lev 1000 ng/mL + EPI 0.00 uM", "result": "-0.203% and 0.204% and -0.0468%"}, {"measurement": "Median REMA values (percentage resazurin turnover)", "setting": "[3]; Lev 1000 ng/mL + EPI 0.00 uM", "result": "-0.268% and -0.0468%"}, {"measurement": "checkerboard growth readout", "setting": "[4]; levofloxacin 4 ng/mL", "result": "106 and 109"}, {"measurement": "checkerboard growth readout", "setting": "[4]; levofloxacin 8 ng/mL", "result": "110 and 118"}, {"measurement": "checkerboard growth readout", "setting": "[4]; levofloxacin 15.625 ng/mL", "result": "111 and 109"}, {"measurement": "checkerboard growth readout", "setting": "[4]; levofloxacin 62.5 ng/mL", "result": "111 and 123"}, {"measurement": "checkerboard growth readout", "setting": "[4]; levofloxacin 250 ng/mL", "result": "61 and 91"}, {"measurement": "MIC", "setting": "[4]; read-out: levofloxacin MIC (checkerboard)", "result": 0.5, "unit": "µg/mL"}, {"measurement": "MIC", "setting": "[4]; read-out: levofloxacin boosted MIC (checkerboard)", "result": 0.016, "unit": "µg/mL"}, {"measurement": "Minimum Inhibitory Concentration", "setting": "K. pneumoniae AcrB^V448E [5]; + 100 µM 1'", "result": 0.03, "unit": "mg/L"}, {"measurement": "Minimum Inhibitory Concentration", "setting": "K. pneumoniae AcrB^V448E [5]; + 100 µM 5", "result": 0.03, "unit": "mg/L"}, {"measurement": "Minimum Inhibitory Concentration", "setting": "K. pneumoniae AcrB^V448E [5]; + 100 µM PAβN", "result": "0.02^# mg/L"}, {"measurement": "MIC", "setting": "K. pneumoniae AcrB^V448E [5]; [8]", "result": 0.04, "unit": "µg/mL"}]}]}
